Results: US20090311237A1, “Combination therapy using a soluble hyaluronidase and a bisphosphonate” (priority 2008, published 2009)
Like-named read-outs stand apart in the source and are kept apart here.

Test: Pharmacokinetics of ZA in pig serum after IV or SC infusion with or without rHuPH20 (LC-MS-MS, non-compartmental analysis)
Assay type: in vivo
Conditions: female, Yorkshire, pig, serum, subcutaneous, […], ZA […], read-out: Zoledronic Acid Serum Concentration
Protocol: A pharmacokinetic study of zoledronic acid (ZA) co-administered with rHuPH20 in female Yorkshire swines was conducted. The primary objective of the study was to determine the bioavailability of zoledronic acid dosed via subcutaneous (SC) co-administration with human recombinant hyaluronidase PH20 (rHuPH20) and to compare the overall exposure to an equivalent IV dose.
Animals in Study Group 1 were dosed with 0.15 mg/kg ZA given via a 20-minute IV infusion. Animals in Study Groups 2 and 3 were dosed subcutaneously (SC) with 0.15 mg/kg ZA without and with rHuPH20, respectively, in different SC delivery volumes.
Following ZA dose administration, serial blood samples were collected via vascular access ports (VAPs) for serum preparation and determination of ZA concentrations. Blood collection times were at 1, 3, 5, 10, 15, 20, 30, 45, and 60 minutes, and at 1.5, 2, 3, 4, 6, 8, 10, 24, 48, and 72 hours post dose. Urine samples were also collected to compare excretion characteristics between IV and SC routes of administration. Collection times for urine were at 15 minutes before dosing (−15 min.), continuously from dose initiation to 2 hours post dose, and at 4, 6, 8, and 24 hours post dose thereafter.
Serum concentration of ZA was determined using a qualified LC-MS-MS assay after derivatization with diazomethane (Zhu, L S et al. (2006) Rapid Commun. Mass Spectrom. 20: 3421-3426; “Qualification Data of An LC-MS/MS Method for the Determination of Zoledronate in Porcine Serum”, MDS Pharma Services Study No. AA43671-01, Report Date 14 Sep. 2007). The assay range was from 2.0 to 400 ng/mL with a lower limit of quantitation (LLOQ) at 2.0 ng/mL. Urine concentration of ZA was determined by a similar well qualified LC-MS-MS method (“Qualification Data of An LC-MS/MS Method for the Determination of Zoledronate in Porcine Urine”, MDS Pharma Services Study No. AA43671-02, Report Date 14 Sep. 2007) with an assay LLOQ at 10 ng/mL.
Pharmacokinetic (PK) analyses of ZA serum concentration versus time data were conducted using WinNonlin v5.1 (Pharsight, Mountain View, Calif.). Non-compartmental analysis was used for derivation of primary and secondary pharmacokinetic (PK) parameters. AUC, Cmax, and Tmax were compared between dose routes, between co-administration with rHuPH20, and with dose of rHuPH20.

O=P(O)(O)C(O)(Cn1ccnc1)P(=O)(O)O [ZA, 1-hydroxy-2-(1H-imidazol-1-yl)ethylidene-1,1-bisphosphonic acid]
concentration at 1 h (Time 1 h, pig ID 70, Study Group 2, SC, 10 mL, 1.6 min, rHuPH20 0 U/mL): 0.101 µg/mL | concentration at 2 h (Time 2 h, pig ID 59, Study Group 2, SC, 100 mL, 16 min, rHuPH20 0 U/mL): 0.0229 µg/mL | concentration at 2 h (Time 2 h, pig ID 60, Study Group 2, SC, 100 mL, 16 min, rHuPH20 0 U/mL): 0.0758 µg/mL | concentration at 2 h (Time 2 h, pig ID 62, Study Group 2, SC, 50 mL, 8 min, rHuPH20 0 U/mL): 0.0284 µg/mL | concentration at 2 h (Time 2 h, pig ID 69, Study Group 2, SC, 25 mL, 4 min, rHuPH20 0 U/mL): 0.0318 µg/mL | concentration at 2 h (Time 2 h, pig ID 70, Study Group 2, SC, 10 mL, 1.6 min, rHuPH20 0 U/mL): 0.0377 µg/mL | concentration at 3 h (Time 3 h, pig ID 59, Study Group 2, SC, 100 mL, 16 min, rHuPH20 0 U/mL): 0.0133 µg/mL | concentration at 3 h (Time 3 h, pig ID 60, Study Group 2, SC, 100 mL, 16 min, rHuPH20 0 U/mL): 0.0275 µg/mL | concentration at 3 h (Time 3 h, pig ID 62, Study Group 2, SC, 50 mL, 8 min, rHuPH20 0 U/mL): 0.0135 µg/mL | concentration at 3 h (Time 3 h, pig ID 69, Study Group 2, SC, 25 mL, 4 min, rHuPH20 0 U/mL): 0.0205 µg/mL | concentration at 3 h (Time 3 h, pig ID 70, Study Group 2, SC, 10 mL, 1.6 min, rHuPH20 0 U/mL): 0.0222 µg/mL | concentration at 4 h (Time 4 h, pig ID 59, Study Group 2, SC, 100 mL, 16 min, rHuPH20 0 U/mL): 0.00648 µg/mL | concentration at 4 h (Time 4 h, pig ID 60, Study Group 2, SC, 100 mL, 16 min, rHuPH20 0 U/mL): 0.00903 µg/mL | concentration at 4 h (Time 4 h, pig ID 62, Study Group 2, SC, 50 mL, 8 min, rHuPH20 0 U/mL): 0.00474 µg/mL | concentration at 4 h (Time 4 h, pig ID 69, Study Group 2, SC, 25 mL, 4 min, rHuPH20 0 U/mL): 0.00811 µg/mL | concentration at 4 h (Time 4 h, pig ID 70, Study Group 2, SC, 10 mL, 1.6 min, rHuPH20 0 U/mL): 0.00947 µg/mL | concentration at 6 h (Time 6 h, pig ID 60, Study Group 2, SC, 100 mL, 16 min, rHuPH20 0 U/mL): 0.0036 µg/mL | concentration at 6 h (Time 6 h, pig ID 62, Study Group 2, SC, 50 mL, 8 min, rHuPH20 0 U/mL): 0.00299 µg/mL | concentration at 6 h (Time 6 h, pig ID 69, Study Group 2, SC, 25 mL, 4 min, rHuPH20 0 U/mL): 0.00292 µg/mL | concentration at 6 h (Time 6 h, pig ID 70, Study Group 2, SC, 10 mL, 1.6 min, rHuPH20 0 U/mL): 0.00409 µg/mL | concentration at 8 h (Time 8 h, pig ID 70, Study Group 2, SC, 10 mL, 1.6 min, rHuPH20 0 U/mL): 0.00207 µg/mL | concentration at […] (pig 56, Study Group 3, SC, rHuPH20 10000 U/mL, 25 mL over 4 min, time […]): 0.0292 µg/mL | concentration at 2 h (pig 58, Study Group 3, SC, rHuPH20 10000 U/mL, 50 mL over 8 min, time 2 h): 0.0401 µg/mL | concentration at 3 h (pig 58, Study Group 3, SC, rHuPH20 10000 U/mL, 50 mL over 8 min, time 3 h): 0.0108 µg/mL | concentration at 4 h (pig 58, Study Group 3, SC, rHuPH20 10000 U/mL, 50 mL over 8 min, time 4 h): 0.00827 µg/mL | concentration at 6 h (pig 58, Study Group 3, SC, rHuPH20 10000 U/mL, 50 mL over 8 min, time 6 h): 0.00265 µg/mL | concentration at 0.05 h (pig 64, Study Group 3, SC, rHuPH20 10000 U/mL, 100 mL over 16 min, time 0.05 h): 0.057 µg/mL | concentration at 0.333 h (pig 64, Study Group 3, SC, rHuPH20 10000 U/mL, 100 mL over 16 min, time 0.333 h): 0.253 µg/mL | concentration at 0.5 h (pig 64, Study Group 3, SC, rHuPH20 10000 U/mL, 100 mL over 16 min, time 0.5 h): 0.197 µg/mL | concentration at 1 h (pig 64, Study Group 3, SC, rHuPH20 10000 U/mL, 100 mL over 16 min, time 1 h): 0.101 µg/mL | concentration at 2 h (pig 64, Study Group 3, SC, rHuPH20 10000 U/mL, 100 mL over 16 min, time 2 h): 0.0509 µg/mL | concentration at 3 h (pig 64, Study Group 3, SC, rHuPH20 10000 U/mL, 100 mL over 16 min, time 3 h): 0.0298 µg/mL
